The text below walks through data of patent US9174964B2, “AMPK-activating piperidinyloxy-substituted 2,3-dihydro-1H-indene-1-amine compounds and pharmaceutical compositions including the same” (Rigel Pharmaceuticals, Inc., priority 2007, dated 2015).

This experiment addresses AMPK. As to the kind of experiment: AMPK activation, enzyme-linked immunosorbent assay. The conditions noted are these: ELISA. The format is biochemical.

The molecule `O=C(N[C@@H]1CCN(Cc2ccncc2)C1)c1ccc(OC2CCN(c3ccc(C(F)(F)F)cc3)CC2)cn1` [Compound 25, (R)-N-(1-(pyridin-4-ylmethyl)pyrrolidin-3-yl)-5-(1-(4-(trifluoromethyl)phenyl)piperidin-4-yloxy)picolinamide] showed an EC50 (Table 2, AMPK activation) of 100 to 500 nM.

`CN(C(=O)c1cc2cc(OC3CCN(c4ccc(C(F)(F)F)cc4)CC3)ccc2o1)C1CCN(Cc2ccncc2)CC1` [Compound 104, N-methyl-N-(1-(pyridin-4-ylmethyl)piperidin-4-yl)-5-(1-(4-(trifluoromethyl)phenyl)piperidin-4-yloxy)benzofuran-2-carboxamide]: for the setting “Table 4, AMPK activation”, the EC50 is 100 to 500 nM.

As for `O=C(NC1CCN(S(=O)(=O)c2cccnc2)CC1)c1cc2ccc(OC3CCN(c4ccc(C(F)(F)F)cc4)CC3)cc2o1` [Compound 106, N-(1-(pyridin-3-ylsulfonyl)piperidin-4-yl)-6-(1-(4-(trifluoromethyl)phenyl)piperidin-4-yloxy)benzofuran-2-carboxamide], the EC50 (Table 4, AMPK activation) lay within 100 to 500 nM.
